Laboratory results from patent publication US9643928B2, “Crystalline forms of {[1-cyano-5-(4-chlorophenoxy)-4-hydroxy-isoquinoline-3-carbonyl]-amino}-acetic acid” (FIBROGEN, INC., priority 2013, dated 2017).
“Also recorded” adds a separate entry of the source.

How the values were obtained:
[1] = test system: Female Wistar rats with subtotal nephrectomy; assay: Anemia induced by chronic kidney disease (5/6 nephrectomy, rat remnant kidney model); format: in vivo
From the text: Female Wistar rats underwent subtotal nephrectomy (⅚) surgery to induce chronic kidney disease by ligating the left kidney to infarct ⅔ of the kidney while the right kidney underwent simultaneous total nephrectomy. As a control, additional animals underwent a sham surgery, without nephrectomy. Five weeks after surgery, anemia and chronic kidney disease in the nephrectomized animals were confirmed by clinical pathology and animals were then assigned to one of three treatment groups (n=8/group) and treated with 0 (vehicle), 8 or 20 mg/kg Compound A. The sham group (n=8) received 0 mg/kg (vehicle). Starting 6 weeks after surgery, all animals were dosed TIW (on Monday, Wednesday, and Friday) via oral gavage for 2 weeks. Whole blood samples were collected 5, 7, and 8 weeks after surgery.

male Swiss Webster mice = assay: Hemoglobin and hematocrit levels in mice after 1 week of intermittent oral dosing; format: in vivo
Experimental: Compound A (2, 6, 20, 60, 100 or 200 mg/kg as an oral gavage) or vehicle control were administered orally 3 times in 1 week on Monday, Wednesday, and Friday (4-8 male Swiss Webster mice/group). Three days after the last dose, all animals were euthanized and blood and serum were collected for complete blood counts (CBC) and serum chemistry.

[2] = test system: Female Lewis rats challenged with peptidoglycan-polysaccharide polymers (PG-PS); assay: Anemia of chronic disease model (PG-PS challenge); format: in vivo
Experimental: Female Lewis rats were challenged with peptidoglycan-polysaccharide polymers (PG-PS) to induce arthritis and anemia. Arthritis and anemia were allowed to develop for 28 days prior to initiation of treatment with Compound A (oral gavage, 8 or 20 mg/kg) or vehicle (n=8/group). Treatments were administered 3 times per week (Monday, Wednesday, and Friday), for 2 weeks. Progression of the model was monitored by measurement of paw swelling and hematology parameters. Blood samples were analyzed for hematopoiesis and iron parameters. The study also included three non-challenged control groups (n=5/group) that were injected with saline rather than PG-PS and then treated with vehicle or Compound A (8 or 20 mg/kg) as described for the PG-PS animals. […] In addition to anemia, PG-PS-challenged rats developed systemic inflammation and arthritis, as indicated by elevated white blood cell counts and swelling of the extremities.

healthy male volunteers = assay: Single oral dose in healthy male volunteers: erythropoietin, reticulocyte and hemoglobin levels; format: in vivo, human
Experimental: A single dose of Compound A (Form 2, capsules) was administered orally to healthy male volunteers. Compound A was provided in 1 mg and 5 mg capsules with the dose being rounded to the nearest whole capsule. In cohorts 1-4 the doses were 0.05 mg/kg, 0.15 mg/kg, 0.3 mg/kg and 0.4 mg/kg respectively. The time points for blood collection were: predose, 8, 12, 16, 20, 24, 30, 48, 72, 96 and 120 hours, days 8, 10, 12, and 15 post dose.

[3] = Maturation of Form 1 in water with or without seeds of Form 2, XRPD; format: physicochemical; conditions: 50° C./room temperature (4 h-cycles), 75% RH
Experimental: A suspension of a solid mixture of Form 1 and Form 2 (1:1) in water was incubated at 50° C./room temperature (4 h-cycles), and at 75% RH for four days. After this time, the solid was analysed by XRPD. The crystalline pattern matched Form 2, and no traces of Form 1 were detected in this analysis.
Form 1 was suspended in water and incubated at 50° C./room temperature (4 h-cycles), and at 75% RH. In this case, the transformation of Form 1 into Form 2 was slower.

[4] = Reflux of Form 1 in water, monitored by XRPD; format: physicochemical
From the text: Form 1 was refluxed in water and the crystallinity of the solid was monitored by XRPD.

[5] = Stability of Form 1 in water at 25° C., XRPD; format: physicochemical; conditions: six days
Experimental: Form 1 was suspended in water at 25° C., and the crystallinity of the solid was analysed by XRPD over a period of time.

[6] = Relative stability of Form 1 and Form 2 (summary of Example 3); format: physicochemical
From the text: The relative stability of Form 1 and Form 2 have been studied under different conditions (see Example 3).

[7] = Stability of solid forms in humidity chamber at 40° C. and 75% RH, re-analysed by XRPD; format: physicochemical; conditions: one week
Experimental: The solids were then stored in the humidity chamber at 40° C. and 75% RH for a week to assess their stability under these conditions, and re-analysed by XRPD.

[8] = 8 and 20 mg/kg oral TIW, after 2 weeks of treatment
[9] = all dose groups 2-200 mg/kg, oral gavage 3 times in 1 week, three days after last dose
[10] = 8 or 20 mg/kg oral 3 times per week for 2 weeks, statistically significant at 20 mg/kg
[11] = cohort 2, 0.15 mg/kg single oral dose
[12] = cohort 3, 0.3 mg/kg single oral dose

Structure (SMILES): N#Cc1nc(C(=O)NCC(=O)O)c(O)c2c(Oc3ccc(Cl)cc3)cccc12 [Compound A, {[1-cyano-5-(4-chlorophenoxy)-4-hydroxy-isoquinoline-3-carbonyl]-amino}-acetic acid]
- Hb, HCT and RBC (all three parameters) relative to non-anemic sham control group ([1]; 20 mg/kg oral TIW, 2 weeks): normalized
- MCV in nephrectomized animals ([1]; 20 mg/kg, after 2 weeks of treatment): significantly higher
- HCT compared to vehicle controls [1, 8]: significantly elevated
- Hb compared to vehicle controls [1, 8]: significantly elevated
- RBC compared to vehicle controls [1, 8]: significantly elevated
- MCH values in nephrectomized animals ([1]; 8 and 20 mg/kg, not significant): higher
- anemia associated with 5/6 nephrectomy ([1]; intermittent treatment for 2 weeks): corrected
- Mean hematocrit (HCT) compared to vehicle control (male Swiss Webster mice; [9]): significantly higher
- Mean hemoglobin (Hb) compared to vehicle control (male Swiss Webster mice; [9]): significantly higher
- Mean red blood counts (RBC) compared to vehicle control (male Swiss Webster mice; [9]): significantly higher
- Hb levels increase (male Swiss Webster mice; lowest dose tested, 2 mg/kg, 1-week study): more than 1 g/dL
- HCT decrease induced by PG-PS challenge [2, 10]: corrected
- Hb decrease induced by PG-PS challenge [2, 10]: corrected
- MCH decrease induced by PG-PS challenge [2, 10]: corrected
- RBC decrease induced by PG-PS challenge [2, 10]: corrected
- TIBC increase induced by PG-PS challenge [2, 10]: corrected
- anemia associated with anemia of chronic disease ([2]; intermittent treatment): significantly alleviated
- change in mean hemoglobin levels (healthy male volunteers; Cohort 1, 0.05 mg/kg, Day 0 to Day 8): did not change
- Reticulocyte values (% baseline ± SD) (healthy male volunteers; Cohort 1, 0.05 mg/kg, Day 3): 104 ± 8 % baseline
- Reticulocyte values (% baseline ± SD) (healthy male volunteers; Cohort 1, 0.05 mg/kg, Day 5): 111 ± 10 % baseline
- Reticulocyte values (% baseline ± SD) (healthy male volunteers; Cohort 1, 0.05 mg/kg, Day 8): 120 ± 20 % baseline
- Reticulocyte values (% baseline ± SD) (healthy male volunteers; Cohort 2, 0.15 mg/kg, Day 3): 111 ± 19 % baseline
- Reticulocyte values (% baseline ± SD) (healthy male volunteers; Cohort 2, 0.15 mg/kg, Day 5): 121 ± 22 % baseline
- Reticulocyte values (% baseline ± SD) (healthy male volunteers; Cohort 3, 0.3 mg/kg, Day 3): 127 ± 3 % baseline
- Reticulocyte values (% baseline ± SD) (healthy male volunteers; Cohort 3, 0.3 mg/kg, Day 5): 141 ± 22 % baseline
- Reticulocyte values (% baseline ± SD) (healthy male volunteers; Cohort 4, 0.4 mg/kg, Day 3): 163 ± 21 % baseline
- Reticulocyte values (% baseline ± SD) (healthy male volunteers; Cohort 4, 0.4 mg/kg, Day 5): 134 ± 22 % baseline
- time of peak erythropoietin levels (healthy male volunteers; cohort 1, 0.05 mg/kg single oral dose): approximately 16.8 hours
- mean maximum plasma erythropoietin concentration (healthy male volunteers; cohort 1, 0.05 mg/kg single oral dose, baseline mean 11.4 mIU/mL): 27.2 mIU/mL
- median maximum erythropoietin concentration (healthy male volunteers; [11]): 81.7 mIU/ml
- time of peak erythropoietin levels (mean) (healthy male volunteers; [11]): 14 h
- time until mean erythropoietin levels trended back to baseline (healthy male volunteers; [11]): approximately 5 days
- Reticulocyte values (% baseline ± SD) (healthy male volunteers; cohort 2, 0.15 mg/kg, Day 8): 180 ± 53 % baseline
- mean hemoglobin increase (healthy male volunteers; cohort 2, 0.15 mg/kg, Day 8): 0.3 g/dL
- average maximum erythropoietin concentration (healthy male volunteers; [12]): approximately 620 mIU/mL
- time of peak erythropoietin levels (mean) (healthy male volunteers; [12]): 23 h
- Reticulocyte values (% baseline ± SD) (healthy male volunteers; cohort 3, 0.3 mg/kg, Day 8): 231 ± 40 % baseline
- mean hemoglobin increase (healthy male volunteers; cohort 3, 0.3 mg/kg, Day 8): 0.8 g/dL
- median time to maximum EPO concentration (healthy male volunteers; cohort 4, 0.4 mg/kg single oral dose): 20 h
- mean maximum plasma erythropoietin concentration (healthy male volunteers; cohort 4, 0.4 mg/kg single oral dose, pending re-analysis of one sample above upper limit of quantitation): 2,900 mIU/mL
- Reticulocyte values (% baseline ± SD) (healthy male volunteers; cohort 4, 0.4 mg/kg, Day 8): 376 ± 60 % baseline
- mean hemoglobin increase (healthy male volunteers; cohort 4, 0.4 mg/kg, Day 8): 0.7 g/dL
- mean hemoglobin increase (healthy male volunteers; cohort 4, 0.4 mg/kg, Day 15): 1.1 g/dL

Structure (SMILES): N#Cc1nc(C(=O)NCC(=O)O)c(O)c2c(Oc3ccc(Cl)cc3)cccc12 [Form 1, {[1-cyano-5-(4-chlorophenoxy)-4-hydroxy-isoquinoline-3-carbonyl]-amino}-acetic acid]
- transformation on maturation in water without seeds of Form 2 ([3]; after 4 days): clear indication of Form 2 forming
- transformation on maturation in water without seeds of Form 2 ([3]; after 15 days): completely turned to Form 2
- crystallinity by XRPD on reflux in water ([4]; after 2.5 h): several new diffraction peaks corresponding to Form 2
- crystallinity by XRPD on reflux in water ([4]; after 10 h at reflux): transformation of Form 1 into Form 2 was complete
- changes in crystalline pattern in aqueous suspension [5]: remains unchanged; also recorded: No changes
- hygroscopicity [6]: low hygroscopicity
- stability to humidity [6]: stable
- conversion of form on maturation in isopropyl acetate (IPAc) ([6]; 5° C., 25° C. and 50° C.): converts to Form 2
- conversion of form on heating ([6]; heating above 200° C.): converts to Form 2

Structure (SMILES): N#Cc1nc(C(=O)NCC(=O)O)c(O)c2c(Oc3ccc(Cl)cc3)cccc12 [Form 2, {[1-cyano-5-(4-chlorophenoxy)-4-hydroxy-isoquinoline-3-carbonyl]-amino}-acetic acid]
- Stability at 40° C./75% RH (form found by XRPD) [7]: remained unchanged; also recorded: Form 2
- hygroscopicity [6]: low hygroscopicity
- stability to humidity [6]: stable
- relative thermodynamic stability ([6]; conditions investigated): thermodynamically more stable than Form 1
- transformation of Form 2 into Form 1 ([6]; conditions investigated): has not been observed

Structure (SMILES): N#Cc1nc(C(=O)NCC(=O)O)c(O)c2c(Oc3ccc(Cl)cc3)cccc12 [XRPD 7]
- Stability at 40° C./75% RH (form found by XRPD) [7]: changed into Form 2
